What all share (test): NCI tumour cell line growth inhibition, 48 h
Assay [1] concerns OVCAR-5.
Assay [2] relates to NCI/ADR-RES.
In assay [3] the test system is ACHN.
Assay [4] has as its system 786-0.
For assay [5], the system named is NCI-H522.
Assay [6] relates to CAKI-1.
Assay [7] deals with SK-MEL-5.
Assay [8] has as its system NCI-H226.
Assay [9] has as its system MOLT-4.
The subject of assay [10] is UACC-62.
Assay [11] deals with MCF7.
Assay [12] has as its system Malme-3M.
Assay [13] concerns HCT-116.
Assay [14] concerns Hs-578T.
Assay [15] relates to SR.
The test system of assay [16] is NCI-H460.
In assay [17] the test system is OVCAR-8.
In assay [18] the test system is T47D.
Assay [19] has as its system UACC-257.
Assay [20] relates to OVCAR-3.

The structures appear in SMILES notation.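 Values below derive from 48-hour exposures of cells grown in 96-well plates, with endpoints linearly interpolated between the two concentrations bracketing the appropriate inhibition level. At the GI50, growth is halved.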 Calls of active or inactive are those of the source. Rule as the data show it: active = GI50 up to about 1.1 µM and inactive = higher.

The source of these data is ChEMBL document CHEMBL1201862, “PubChem BioAssay data set” (2004).

On to `O=S(=O)(c1ccccc1)c1ccc(/N=N/O)nc1`, for which the GI50 in [1], in assay [2], in assay [3], in [4], in assay [5] and in assay [6] was > 100 µM (inactive) throughout. The GI50 in assay [7] is > 10 µM (inactive); in assay [8], > 100 µM (inactive); in assay [9], 22.4 µM (inactive); in [10] it was > 100 µM (inactive); in [11] it was 76 µM (inactive); in assay [12], > 100 µM (inactive). The GI50 in [13], in [14], in assay [15], in assay [16], in [17] and in assay [18] was > 100 µM (inactive) throughout. The GI50 in assay [19] and in assay [20] was > 100 µM (inactive) each time.
As for `CCCCNCC(=O)O[C@]1(CC)C(=O)OCc2c1cc1n(c2=O)Cc2cc3ccccc3nc2-1`, the GI50 in assay [1] was 0.535 µM (active); in assay [2] it was 0.0789 µM (active); in [3], 0.037 µM (active); in [4], 0.0482 µM (active); in [5], 0.224 µM (active); in assay [6], 0.0647 µM (active). Besides, the GI50 in assay [7] was 0.277 µM (active); in assay [8], 0.105 µM (active); in assay [9], 0.017 µM (active); in assay [10], 0.0578 µM (active); in [11], 0.0998 µM (active); in assay [12] it was 2.84 µM (inactive). Moreover, the GI50 was 0.407 µM (active) in assay [13]; 31.9 µM (inactive) in assay [14]; 0.0101 µM (active) in [15]; 0.0261 µM (active) in [16]; 0.217 µM (active) in assay [17]; 0.219 µM (active) in assay [18]. Also, the results for the GI50 in assay [19] and in [20] were 0.646 µM (active) and 2.16 µM (inactive), respectively.
Take `CCC(C)N1CN(c2ccccc2)C2(CCN(CCCC3(c4ccc(F)cc4)OCCO3)CC2)C1=O` (stereo unspecified): the GI50 in [1] is 8.61 µM (inactive); in [2], 13.3 µM (inactive); in [3] it was 6.61 µM (inactive); in assay [4], 5.53 µM (inactive); in assay [5], 5.11 µM (inactive); in [6] it was > 52 µM (inactive). Moreover, the GI50 in assay [7] was 3.88 µM (inactive); in [8] it was 16.7 µM (inactive); in assay [9], 2.61 µM (inactive); in assay [10], 23.3 µM (inactive); in [11], 3.3 µM (inactive); in assay [12], 5.19 µM (inactive). The GI50 is 11.9 µM (inactive) in assay [13]; 6.15 µM (inactive) in assay [14]; 6.34 µM (inactive) in assay [15]; 14.8 µM (inactive) in assay [16]; 7.64 µM (inactive) in assay [17]; 8.28 µM (inactive) in assay [18]. Also, the GI50 in [19] is 1.98 µM (inactive); in [20], 14.7 µM (inactive).
Consider `Cc1c(C(=O)OCc2ccccc2)[n+]([O-])c2cc(F)c(F)cc2[n+]1[O-]`, for which the GI50 in [1] was 3.72 µM (inactive); in [2] it was 3.22 µM (inactive); in assay [3] it was 1.94 µM (inactive); in assay [4], 4.58 µM (inactive); in assay [5] it was 2 µM (inactive); in assay [6], 2.15 µM (inactive). Moreover, the GI50 is 0.698 µM (active) in assay [7]; 2.7 µM (inactive) in assay [8]; 1.96 µM (inactive) in assay [9]; 2.11 µM (inactive) in [10]; 2.31 µM (inactive) in [11]; 1.99 µM (inactive) in [12]. Also, the GI50 in assay [13] is 1.63 µM (inactive); in assay [14], 0.306 µM (active); in assay [15], 0.877 µM (active); in assay [16], 2.46 µM (inactive); in assay [17], 2.07 µM (inactive); in assay [18], 1.51 µM (inactive). The GI50 in assay [19] is 2.19 µM (inactive); in [20] it was 1.01 µM (active).
In the case of `O=C(O)COc1cccc2ccccc(=O)c12`, the GI50 in assay [1], in assay [2], in assay [3], in assay [4], in [5] and in [6] was > 100 µM (inactive) each time. Further, the GI50 in assay [7], in assay [8], in [9], in [10], in assay [11] and in assay [12] was > 100 µM (inactive) each time. Besides, the GI50 in [13], in assay [14], in [15], in assay [16], in assay [17] and in assay [18] was > 100 µM (inactive) each time. Also, the GI50 in assay [19] and in assay [20] was > 100 µM (inactive) in each case.
Regarding `COC(=O)c1ccccc1Nc1nc(-c2cccs2)nc2cc(OC)c(OC)cc12`, the GI50 in assay [1] was 36.2 µM (inactive); in [2], 57 µM (inactive); in assay [3] it was 47.8 µM (inactive); in assay [4] it was 38.8 µM (inactive); in assay [5], 59.7 µM (inactive); in assay [6] it was 39.4 µM (inactive). The GI50 in assay [7] is > 100 µM (inactive); in [8], 23.4 µM (inactive); in assay [9] it was 57.9 µM (inactive); in assay [10] it was 52.6 µM (inactive); in [11] it was 72.3 µM (inactive); in assay [12] it was 61 µM (inactive). The GI50 was 37.5 µM (inactive) in [13]; 30.3 µM (inactive) in assay [14]; 18 µM (inactive) in assay [15]; 58.6 µM (inactive) in assay [16]; 15.2 µM (inactive) in assay [17]; 37 µM (inactive) in assay [18]. For the same compound, the GI50 in [19] is 70.8 µM (inactive); in [20] it was 40.2 µM (inactive).
As for `O=[N+]([O-])C(=C(Nc1cccc2cccnc12)Nc1cccc2cccnc12)C(Cl)=C(Cl)Cl`, the GI50 was > 100 µM (inactive) in assay [1]; 28.8 µM (inactive) in assay [2]; 22 µM (inactive) in assay [3]; > 71.3 µM (inactive) in assay [4]; 17.3 µM (inactive) in assay [5]; > 49.9 µM (inactive) in [6]. The GI50 was 4.97 µM (inactive) in [7]; 63.1 µM (inactive) in assay [8]; 74.1 µM (inactive) in [9]; 77.1 µM (inactive) in [10]; 13.5 µM (inactive) in [11]; > 92.3 µM (inactive) in assay [12]. For the same compound, the GI50 in assay [13] was 45 µM (inactive); in [14], > 21.7 µM (inactive); in assay [15], > 100 µM (inactive); in [16], 33.4 µM (inactive); in assay [17], 33.2 µM (inactive); in [18], 29.1 µM (inactive). Moreover, the GI50 in assay [20] was 27.3 µM (inactive).
With `CC(=O)Oc1c2c(c3n(c1=O)CCCC3)C(=O)N(c1ccccc1)C2=O`, the GI50 in assay [1] is > 100 µM (inactive); in [2] it was 65.3 µM (inactive); in assay [3], 51.4 µM (inactive); in [4], > 100 µM (inactive); in assay [5], 61.5 µM (inactive); in assay [6], > 100 µM (inactive). The GI50 in assay [7] is 53.3 µM (inactive); in assay [8] it was 60 µM (inactive); in [9], > 100 µM (inactive); in [10] it was 63.7 µM (inactive); in assay [11], > 100 µM (inactive); in assay [12] it was > 100 µM (inactive). For the same compound, the GI50 in assay [13] is > 100 µM (inactive); in assay [14], > 100 µM (inactive); in assay [15], > 100 µM (inactive); in assay [16] it was > 100 µM (inactive); in [17], > 100 µM (inactive); in [18], 87.5 µM (inactive). In [20], the GI50 was 86.7 µM (inactive).
For the compound `N#Cc1nc(CCC(c2nc(C#N)c(N)o2)N2C(=O)c3ccccc3C2=O)oc1N` (stereo unspecified), the GI50 in [1], in [2], in assay [3], in [4], in assay [5] and in assay [6] was > 100 µM (inactive) each time. The GI50 in assay [7] is > 100 µM (inactive); in assay [8], > 100 µM (inactive); in assay [9] it was 27.8 µM (inactive); in assay [10] it was > 100 µM (inactive); in assay [11], > 100 µM (inactive); in assay [12], > 100 µM (inactive). Further, the GI50 in assay [13] was > 100 µM (inactive); in [14], > 100 µM (inactive); in assay [15], < 0.01 µM (active); in assay [16] it was > 100 µM (inactive); in assay [18], > 100 µM (inactive); in [19], > 100 µM (inactive). Besides, the GI50 in [20] is > 100 µM (inactive).
Turning to `COc1cccc2c1OC(c1ccc(Cl)cc1)C([N+](=O)[O-])=C2` (stereo unspecified), the GI50 is 2.79 µM (inactive) in [1]; 3.79 µM (inactive) in assay [2]; 1.46 µM (inactive) in [3]; 1.84 µM (inactive) in [4]; 1.59 µM (inactive) in [5]; 3.48 µM (inactive) in assay [6]. Besides, the GI50 in [7] is 1.53 µM (inactive); in [9], 1.49 µM (inactive); in assay [10] it was 1.74 µM (inactive); in [11], 1.2 µM (inactive); in [12], 1.87 µM (inactive); in [13] it was 1.35 µM (inactive). In addition, the GI50 is 4.2 µM (inactive) in assay [14]; 0.538 µM (active) in [15]; 1.58 µM (inactive) in [16]; 1.93 µM (inactive) in assay [17]; 2.34 µM (inactive) in assay [18]; 1.91 µM (inactive) in assay [19]. For the same compound, the GI50 in assay [20] was 2.54 µM (inactive).
